Laboratory results from ChEMBL document CHEMBL1153642, “Induction of apoptosis in HuH-7 cancer cells by monoterpene and beta-carboline indole alkaloids isolated from the leaves of Tabernaemontana elegans” (2009).
Activity calls are given as the source filed them. The calls are words filed in the database; no cut-off is given here.

Columns and labels:
Huh-7 [1] = experiment: Induction of apoptosis in human HuH7 cells assessed as cell death after 24 hrs by trypan blue dye exclusion assay; assay type: functional, cell-based
Huh-7 [2] = experiment: Induction of apoptosis in human HuH7 cells assessed as change in nuclear morphology after 48 hrs using Hoechst staining; assay type: functional
Huh-7 [3] = experiment: Induction of apoptosis in human HuH7 cells assessed as change in nuclear morphology after 72 hrs using Hoechst staining; assay type: functional
Huh-7 [4] = experiment: Induction of apoptosis in human HuH7 cells assessed as change in nuclear morphology after 24 hrs using Hoechst staining; assay type: functional
Huh-7 [5] = experiment: Induction of apoptosis in human HuH7 cells assessed as increase in caspase-3 activity after 12 hrs; assay type: functional, cell-based
Huh-7 [6] = experiment: Induction of necrosis in human HuH7 cells; assay type: functional, cell-based

SMILES | Activity (Huh-7 [1]) | Activity (Huh-7 [2]) | Activity (Huh-7 [3]) | Activity (Huh-7 [4]) | Activity (Huh-7 [5]) | inhibition (Huh-7 [6])
Cc1cc2c([nH]c3ccccc32)c2[n+]1C(C)NCC2 (configuration not stated) | Active | – | – | – | – | –
Cc1cc2c3ccccc3n3c2c(n1)CCNC3C (configuration not stated) | Active | – | – | – | – | –
CC[C@@H]1CN(C)[C@H]2Cc3c([nH]c4ccccc34)C(=O)C[C@@H]1[C@H]2C(=O)OC [TABERNAEMONTANINE] | – | <25% | <25% | 40% | Active | inactive
C/C=C1/CN(C)[C@H]2Cc3c([nH]c4ccccc34)C(=O)C[C@H]1[C@@H]2C(=O)OC [VOBASINE] | – | <25% | <25% | 40% | Active | inactive
